Assay results reported in patent EP0719251B1, “BICYCLO (2.2.2) OCTANE DERIVATIVES CHOLECYSTOKININ AND/OR GASTRIN ANTAGONISTS” (JAMES BLACK FOUNDATION LIMITED, priority 1993, dated 1995).

How the values were obtained:
gastrin = target: T1, gastrin (Rattus norvegicus, UniProt P30553); test: gastrin antagonist activity in an immature rat stomach assay; details: isolated immature rat stomach, cumulative pentagastrin dose-response curves, acid secretion; for Gastrin pKB: 60 min; for Kb: read-out: Gastrin pKB (converted)
T1 construct: The stomach was excised and flushed with ca. 1 ml of unbuffered physiological saline solution; from tissue; host or cells: isolated whole stomach of immature rats (33-50 g, ca. 21 days old)
T1 sequence (P30553 1-452): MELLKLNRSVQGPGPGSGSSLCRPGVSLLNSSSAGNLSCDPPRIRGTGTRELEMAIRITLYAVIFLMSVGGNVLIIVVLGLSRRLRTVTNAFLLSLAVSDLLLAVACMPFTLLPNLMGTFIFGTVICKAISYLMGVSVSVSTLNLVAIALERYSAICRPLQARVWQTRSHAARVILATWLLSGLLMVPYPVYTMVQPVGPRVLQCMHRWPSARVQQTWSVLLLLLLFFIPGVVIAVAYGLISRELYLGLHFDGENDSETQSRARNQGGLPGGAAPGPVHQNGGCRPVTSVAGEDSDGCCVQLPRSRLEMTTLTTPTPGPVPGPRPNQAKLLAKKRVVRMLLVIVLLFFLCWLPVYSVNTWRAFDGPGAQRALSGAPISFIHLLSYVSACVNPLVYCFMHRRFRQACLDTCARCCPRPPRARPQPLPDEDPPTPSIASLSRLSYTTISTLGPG
In short: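 Isolated stomachs from immature rats (33-50 g, ca. 21 days) perfused at 1 ml min^-1 with O2-gassed unbuffered saline, perfusate pH monitored by electrode. After 120 min stabilisation, compounds added to serosal bath; cumulative pentagastrin dose-response curves begun 60 min later.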

CCKB receptor = target: T2, CCKB receptor (Mus musculus, UniProt P56481); test: radioligand binding assay at the CCKB receptor in mouse cortical membranes; details: [125I]-CCK8S 200pM, 150 min at 21 ± 3°C; for Ki: read-out: CCKB pKi (converted)
T2 construct: The whole brains from male mice (CD1 22-25g; Charles River) were removed; from tissue; host or cells: cerebral cortex membranes of male CD1 mice
T2 sequence (P56481 1-453): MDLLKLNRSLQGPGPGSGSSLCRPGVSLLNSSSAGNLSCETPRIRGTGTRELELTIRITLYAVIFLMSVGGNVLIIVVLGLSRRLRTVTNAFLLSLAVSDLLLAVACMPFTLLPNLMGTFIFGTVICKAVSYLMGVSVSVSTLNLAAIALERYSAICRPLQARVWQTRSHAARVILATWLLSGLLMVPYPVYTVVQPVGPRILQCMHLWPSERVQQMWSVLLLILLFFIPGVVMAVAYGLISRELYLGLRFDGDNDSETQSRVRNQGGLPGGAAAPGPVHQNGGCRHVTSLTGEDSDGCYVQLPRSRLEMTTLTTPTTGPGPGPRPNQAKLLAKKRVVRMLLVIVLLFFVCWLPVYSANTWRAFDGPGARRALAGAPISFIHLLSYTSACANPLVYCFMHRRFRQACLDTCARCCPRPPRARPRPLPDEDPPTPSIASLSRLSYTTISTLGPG
In short: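 Radioligand binding was quantified by gamma counting after filtration through GF/B filters and cold 50 mM Tris-HCl (pH 7.4) washes. Tissue source was male CD1 mouse cortex, homogenised and twice centrifuged, then resuspended at 2 mg.ml^-1 original wet weight in pH 7.2 HEPES buffer containing bacitracin.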

CCKA = target: T3, CCKA (Cavia porcellus, UniProt Q63931); test: CCKA binding assay in guinea-pig pancreas membranes; details: [125I]-CCK8(S) 200pM; for CCKA pKi: containing 0.375 µM PD134,308; for Ki: containing 0.375 µM PD134,308, read-out: CCKA pKi (converted)
T3 construct: The pancreatata were removed from male guinea-pigs (200-300g; Dunkin Hartley); from tissue; host or cells: pancreas membranes of male Dunkin Hartley guinea-pigs
T3 sequence (Q63931 1-430): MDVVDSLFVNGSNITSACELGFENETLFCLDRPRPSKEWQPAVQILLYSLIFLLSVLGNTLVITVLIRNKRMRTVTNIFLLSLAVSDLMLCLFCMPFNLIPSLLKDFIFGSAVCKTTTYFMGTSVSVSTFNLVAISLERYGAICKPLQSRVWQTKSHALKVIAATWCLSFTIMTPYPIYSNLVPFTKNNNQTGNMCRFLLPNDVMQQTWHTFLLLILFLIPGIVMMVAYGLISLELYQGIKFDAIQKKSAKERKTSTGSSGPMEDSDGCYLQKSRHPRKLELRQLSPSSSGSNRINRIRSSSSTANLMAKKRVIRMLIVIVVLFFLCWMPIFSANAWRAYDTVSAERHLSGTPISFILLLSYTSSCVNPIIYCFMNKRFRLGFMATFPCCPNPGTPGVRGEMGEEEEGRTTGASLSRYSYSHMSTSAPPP
Method: The compounds of the examples were also tested in a CCKÅ binding assay as follows:
The pancreatata were removed from male guinea-pigs (200-300g; Dunkin Hartley) and placed in ice-cold HEPES buffer (pH 7.2 @ 21 ± 3° ). The pancreatata were homogenised in 40 ml ice-cold HEPES buffer using a polytron (Brinkmann, PT10, setting 10) 4 x 1 second.
The homogenate was centrifuged at 39,800g for 15 min at 4°. The supernatant was discarded and the pellet re-suspended using a Teflon-in-glass homogeniser in 20 volumes of fresh buffer and recentrifuged as above. The final pellet was re-suspended using a Teflon-in-glass homogeniser to a tissue concentration of 1 mg.ml^-1 (original wet weight), and filtered through 500 µm pore-size Nytex mesh.
The membranes (400µl; containing 0.375 µM PD134,308) are incubated for 150 minutes at 21 ± 3° in a final volume of 0.5ml with HEPES buffer containing [^125I]-CCK8(S) (50µl; 200pM) and competing compound. Total and non-specific binding of [^125I]-CCK8 (S) are defined using 50µl of buffer and 50µl of 100nM L-364,718 respectively. The assay is terminated by rapid filtration through pre-soaked Whatman GF/B filters using a Brandell Cell Harvester. The filters were washed (3 x 3ml) with ice-cold 50mM Tris HCl (pH 7.4 at 4° ) and bound radioactivity is determined by counting (1 min) in a gamma counter.

| Compound | Gastrin pKB (gastrin) | CCKB pKi (CCKB receptor) | CCKA pKi (CCKA) | Kb (gastrin) | Ki (CCKB receptor) | Ki (CCKA) |
| --- | --- | --- | --- | --- | --- | --- |
| O=C(O)c1cc(NC(=O)[C@H](Cc2ccc3ccccc3c2)NC(=O)C2C3c4ccccc4C(c4ccccc43)C2C(=O)NCC23CC4CC(CC(C4)C2)C3)cc(C(=O)O)c1 (single isomer, unassigned) [Example 14, cis-7-(1S-(3,5-dicarboxyphenylaminocarbonyl)-2-(2-naphthyl) -ethylaminocarbonyl)-8-(1-adamantanemethylaminocarbonyl)-2,3,5,6-dibenzobicyclo[2.2.2]octane] | 6.9 | 6.5 | 6.1 | – | – | – |
| O=C(O)c1cc(NC(=O)[C@H](Cc2ccc3ccccc3c2)NC(=O)C2C3c4ccccc4C(c4ccccc43)C2C(=O)NCC23CC4CC(CC(C4)C2)C3)cc(C(=O)O)c1 (single isomer, unassigned) [Example 15, cis-7-(1S-(3,5-dicarboxyphenylaminocarbonyl)-2-(2-naphthyl)ethylaminocarbonyl)-8-(1-adamantanemethylaminocarbonyl) -2,3,5,6-dibenzobicyclo[2.2.2]octane] | 5.8 | 6.7 | 7.0 | – | – | – |
| O=C(O)c1cc(NC(=O)[C@H](Cc2ccccc2F)NC(=O)C2C3c4ccccc4C(c4ccccc43)C2C(=O)NCC23CC4CC(CC(C4)C2)C3)cc(C(=O)O)c1 (single isomer, unassigned) [Example 16, cis-7-(1S-(3,5-dicarboxyphenylaminocarbonyl)-2-(2-fluorophenyl)-ethylaminocarbonyl)-8-(1-adamantanemethylaminocarbonyl) -2,3,5,6-dibenzobicyclo[2.2.2]octane] | – | – | – | 2.51 nM | 3.16 nM | 1000 nM |
| O=C(O)c1cc(NC(=O)[C@H](Cc2ccccc2F)NC(=O)C2C3c4ccccc4C(c4ccccc43)C2C(=O)NCC23CC4CC(CC(C4)C2)C3)cc(C(=O)O)c1 (single isomer, unassigned) [Example 17, cis-7-(1S-(3,5-dicarboxyphenylaminocarbonyl)-2-(2-fluorophenyl)ethylaminocarbonyl)-8-(1-adamantanemethylaminocarbonyl) -2,3,5,6-dibenzobicyclo[2.2.2]octane] | – | – | – | 10 nM | 6.31 nM | 794 nM |
| O=C(O)c1cc(NC(=O)[C@H](Cc2cccc(F)c2)NC(=O)C2C3c4ccccc4C(c4ccccc43)C2C(=O)NCC23CC4CC(CC(C4)C2)C3)cc(C(=O)O)c1 (single isomer, unassigned) [Example 18, cis-7-(1S-(3,5-dicarboxyphenylaminocarbonyl)-2-(3-fluorophenyl) -ethylaminocarbonyl)-8-(1-adamantanemethylaminocarbonyl)-2,3,5,6-dibenzobicyclo[2.2.2]octane] | – | – | – | 3.98 nM | 3.16 nM | 316 nM |
| O=C(O)c1cc(NC(=O)[C@H](Cc2cccc(F)c2)NC(=O)C2C3c4ccccc4C(c4ccccc43)C2C(=O)NCC23CC4CC(CC(C4)C2)C3)cc(C(=O)O)c1 (single isomer, unassigned) [Example 19, cis-7-(1S-(3,5-dicarboxyphenylaminocarbonyl)-2-(3-fluorophenyl)ethylaminocarbonyl)-8-(1-adamantanemethylaminocarbonyl) -2,3,5,6-dibenzobicyclo[2.2.2]octane] | – | – | – | 25.1 nM | 10 nM | 398 nM |
| O=C(O)c1cc(NC(=O)[C@@H](Cc2cccs2)NC(=O)C2C3c4ccccc4C(c4ccccc43)C2C(=O)NCC23CC4CC(CC(C4)C2)C3)cc(C(=O)O)c1 (single isomer, unassigned) [Example 21, cis-7-(1R-(3,5-dicarboxyphenylaminocarbonyl)-2-(2-thiophenyl)ethylaminocarbonyl)-8-(1-adamantanemethylaminocarbonyl)-2,3,5,6-dibenzobicyclo[2.2.2]octane] | – | – | – | 63.1 nM | 50.1 nM | 1260 nM |
| O=C(O)c1cc(NC(=O)[C@H](Cc2ccccc2)NC(=O)C2C3c4ccccc4C(c4ccccc43)C2C(=O)NCC2CCCCC2)cc(C(=O)O)c1 (single isomer, unassigned) [Example 30, cis-7-(1S-(3,5-dicarboxyphenylaminocarbonyl)-2-phenylethylaminocarbonyl)-8-(1-cyclohexanemethylaminocarbonyl)-2,3,5,6-dibenzobicyclo [2.2.2] octane] | – | – | – | 50.1 nM | 20 nM | 3980 nM |
| O=C(O)c1cc(NC(=O)[C@H](Cc2ccccc2)NC(=O)C2C3c4ccccc4C(c4ccccc43)C2C(=O)NCC2CCCCC2)cc(C(=O)O)c1 (single isomer, unassigned) [Example 31, cis-7-(1S-(3,5-dicarboxyphenylaminocarbonyl) -2-phenylethylaminocarbonyl)-8-(cyclohexanemethylaminocarbonyl) -2,3,5,6-dibenzobicyclo[2.2.2]octane] | – | – | – | 251 nM | 200 nM | 1260 nM |
| O=C(O)c1cc(NC(=O)[C@H](Cc2ccccc2)NC(=O)C2C3c4ccccc4C(c4ccccc43)C2C(=O)NCc2cccc3ccccc23)cc(C(=O)O)c1 (single isomer, unassigned) [Example 32, cis-7-(1S-(3,5-dicarboxyphenylaminocarbonyl)-2-phenylethylaminocarbonyl)-8-(1-naphthalenemethylaminocarbonyl) -2,3,5,6-dibenzobicyclo [2.2.2]octane] | – | – | – | 25.1 nM | 10 nM | 501 nM |
| O=C(O)c1cc(NC(=O)[C@H](Cc2ccccc2)NC(=O)C2C3c4ccccc4C(c4ccccc43)C2C(=O)NCc2ccc(Cl)c(Cl)c2)cc(C(=O)O)c1 (single isomer, unassigned) [Example 34, cis-7-(1S-(3,5-dicarboxyphenylaminocarbonyl) -2-phenylethylaminocarbonyl) -8-(3,4-dichlorophenyl-methylaminocarbonyl) -2,3,5,6-dibenzobicyclo[2.2.2]octane] | – | – | – | 316 nM | 39.8 nM | 251 nM |
